Laboratory results: article PMC7767178 (International Journal of Molecular Sciences, 2020)
Values joined by “and” are separate entries in the source; they are usually repeats but may differ in a detail not shown here. Identical values can stand only once. Like-named read-outs stand apart in the source and are kept apart here. Positions of bridges follow the written chain, without caps; N, C: chain ends. Residues, ends and D or L forms follow the SMILES beside them.

Legend:
A. veronii CL0901 = system: A. veronii CL0901
Procedure: (§1) Briefly, the tested strains including Gram-negative bacteria, Gram-positive bacteria, and fungi were cultured to the logarithmic growth phase, diluted to 10^5 CFU/mL, and added into 96-well plates (90 μL/well). Two-fold serial dilutions of peptides or antibiotics dissolved in PBS were added to each well (10 μL/well). […] All experiments were repeated three times.

[1] = system: Aeromonas veronii ACCC61732
Procedure: as §1

[2] = system: Pseudomonas aeruginosa CICC21630
Procedure: as §1

S. aureus ATCC25923 = system: S. aureus ATCC25923
Procedure: as §1

S. aureus ATCC546 = system: S. aureus ATCC546
Procedure: as §1

S. hyicus NCTC10350 = system: S. hyicus NCTC10350
Procedure: as §1

[3] = system: Salmonella typhimurium ATCC14028; type: cell-based
A. veronii = assay: MIC, range over strains; type: cell-based; conditions: range over the strains of Table 2
Excerpt: (§2) All experiments were repeated three times.

Escherichia coli = assay: MIC, range over strains; type: cell-based; conditions: range over the strains of Table 2
Excerpt: as §2

mouse erythrocytes = assay: Hemolysis; type: cell-based; conditions: 256 μg/mL; 8% mouse erythrocyte suspension, 37 °C, 1 h, absorbance 540 nm
Procedure: To determine the hemolysis of peptides, eyeball blood was collected from 6-week-old SPF ICR mice. The blood was centrifuged at 4 °C for 10 min (1500 rpm), washed three times with 0.9% physiological saline, and diluted to 8% suspension. […] Red blood cell suspensions and peptide solutions (100 μL) were mixed in 96-well plates, centrifuged at 4 °C for 5 min (1500 rpm), and incubated at 37 °C for 1 h. The supernatant was added into a 96-well plate and the UV absorbance was measured at 540 nm using a microplate reader. Physiological saline and 0.1% Triton X-100 were used as 0% and 100% hemolytic controls, respectively. The hemolytic ratio was calculated as follows: Hemolysis (%) = [(Abspeptide − Abssaline)/(Abs0.1%Triton X-100 − Abssaline)] × 100% [38].

A. veronii ACCC61732 [4] = assay: ATP release, BacTiter-Glo; type: cell-based; conditions: 8×, 16× and 32× MIC, 60 min, 37 °C, luminescence, n = 3
Procedure: The assay was performed for three biological replicates at 37 °C, with luminescence recorded using a Tecan Infinite M1000 Pro plate reader. The fold reduction of ATP was calculated as: Fold reduction ATP = 1 − (Ltreat − Lmedia/Lcontrol − Lmedia), where Ltreat is the luminescence of treated cells, Lmedia is the luminescence of MHB without cells, and Lcontrol is the luminescence of untreated cells. Resultant graphs show mean (n = 3) and SEM for each data point, prepared in Prism 7 [46].

[5] = system: A. veronii ACCC61732 genomic DNA; assay: CD spectra of genomic DNA with peptides; type: binding; conditions: mass ratios 2.5 and 10.0, 10 min, room temperature
Procedure: CD spectra were performed to examine the secondary structure of genomic DNA from A. veronii ACCC61732 after incubation with peptides. […] The mixtures were loaded into a cuvette of 1.0-mm path length and scanned from 190 to 330 nm at 25 °C using a Pistar π-180 CD spectrometer (Applied Photophysics Ltd., Surry, UK).

[6] = system: A. veronii ACCC61732 mature biofilms; assay: Eradication of mature biofilms, crystal violet; type: cell-based; conditions: 16× MIC, 24 h on 24 h biofilm
Procedure: A. veronii ACCC61732 cells (1 × 10^8 CFU/mL) were cultured in TSB medium in the 96-well plates at 37 °C for 24 h.

MDR A. veronii ACCC61732 = assay: Mouse peritonitis model, survival; type: in vivo, ICR mice; conditions: 5 μmol/kg i.p. 0.5 h after infection, seven days, six mice
Procedure: […]. The mice injected with only bacteria or saline served as the negative and blank control. The mouse survival was recorded daily for seven days.

A. veronii ACCC61732 [7] = assay: Mouse peritonitis model, bacterial translocation to organs; type: in vivo, ICR mice; conditions: 5 μmol/kg, 24 h post-treatment, colony counting
Procedure: Sera and organs (livers, kidneys, spleens, and lungs) were collected from the mice at 24 h post-treatment. The organs were homogenized in sterile PBS to evaluate bacterial translocation by colony counting. The levels of cytokines (TNF-α, IL-1β, IL-6, and IL-10) in sera were detected using the ELISA kits.

in vitro = conditions: mouse, 25% mouse serum
[8] = A. veronii CL0901, broth dilution, 37 °C, 16–18 h, three experiments
[9] = Aeromonas veronii ACCC61732 (MDR), broth dilution, 37 °C, 16–18 h, three experiments
[10] = Pseudomonas aeruginosa CICC21630, broth dilution, 37 °C, 16–18 h, three experiments
[11] = S. aureus ATCC25923, broth dilution, 37 °C, 16–18 h, three experiments
[12] = S. aureus ATCC546, broth dilution, 37 °C, 16–18 h, three experiments
[13] = Salmonella typhimurium ATCC14028, broth dilution, 37 °C, 16–18 h, three experiments

Structure (SMILES)	MIC (A. veronii CL0901) [µM]	MIC (A. veronii CL0901; [8]) [µg/mL]	MIC [1, 9]	MIC [2, 10] [µg/mL]	MIC (S. aureus ATCC25923; [11]) [µg/mL]	MIC (S. aureus ATCC546; [12]) [µg/mL]	MIC (S. hyicus NCTC10350; NCTC10350) [µM]	MIC ([3]; ATCC14028) [µM]	MIC [3, 13] [µg/mL]	MIC values against A. veronii (A. veronii) [µM]	MIC values against Escherichia coli (Escherichia coli) [µM]	hemolysis (mouse erythrocytes) [%]	ATP release (A. veronii ACCC61732 [4])	effect on CD spectrum of genomic DNA [5]	inhibition of mature biofilms [6] [%]	reduction of bacteria in kidneys (A. veronii ACCC61732 [7]) [%]	reduction of bacteria in livers (A. veronii ACCC61732 [7]) [%]	reduction of bacteria in lungs (A. veronii ACCC61732 [7]) [%]	reduction of bacteria in spleens (A. veronii ACCC61732 [7]) [%]	remaining at 2 h (in vitro) [%]	further results
CC(C)[C@@H]1NC(=O)CNC(=O)[C@H](CC(N)=O)NC(=O)[C@H](CCCNC(=N)N)NC(=O)[C@H](Cc2ccc(O)cc2)NC(=O)[C@H](C(C)C)NC(=O)[C@@H](NC(=O)[C@@H](NC(=O)[C@H](CC(N)=O)NC(=O)[C@H](Cc2c[nH]c3ccccc23)NC(=O)[C@H](C)NC(=O)[C@H](Cc2ccccc2)NC(=O)CN)C(C)C)CSSC[C@@H](C(=O)N[C@@H](Cc2c[nH]cn2)C(=O)N[C@@H](CCCNC(=N)N)C(=O)N2CCC[C@H]2C(=O)N[C@@H](C)C(=O)N[C@@H](CC(N)=O)C(N)=O)NC(=O)[C@H](C(C)C)NC(=O)[C@H](CCCNC(=N)N)NC1=O [N6PNH2] (H-GFAWNVCVYRNGVRVCHRPAN-NH2; disulfide 7-16 (inferred))	26.49	64	16 µg/mL	>64	>64	>64	>52.98	6.62	16	6.62 to 26.49	1.66 to 3.31	0.56	77.39–90.34%	do not affect the double helix of genomic DNA	97.16	18.36	31.54	15.92	28.47	95.2	MIC [1]: 6.62 µM; survival rate of mice (MDR A. veronii ACCC61732): 50%; MIC after trypsin treatment (trypsin; pH 8): lost their activity; remaining at 4.5 h (in vitro): 84.9%; remaining at 6 h (in vitro): 79.9%
CC(C)[C@H]1NC(=O)CNC(=O)[C@@H](CC(N)=O)NC(=O)[C@@H](CCCNC(=N)N)NC(=O)[C@@H](Cc2ccc(O)cc2)NC(=O)[C@@H](C(C)C)NC(=O)[C@H](NC(=O)[C@H](NC(=O)[C@@H](CC(N)=O)NC(=O)[C@@H](Cc2c[nH]c3ccccc23)NC(=O)[C@@H](C)NC(=O)[C@@H](Cc2ccccc2)NC(=O)CN)C(C)C)CSSC[C@H](C(=O)N[C@H](Cc2c[nH]cn2)C(=O)N[C@H](CCCNC(=N)N)C(=O)N[C@H](CCCNC(=N)N)C(=O)N[C@H](C)C(=O)N[C@H](CC(N)=O)C(N)=O)NC(=O)[C@@H](C(C)C)NC(=O)[C@@H](CCCNC(=N)N)NC1=O [DN6NH2]	12.93	32	4 μg/mL and 1.62 μM	8	8	16	3.23	3.23	8	1.62 to 25.86	1.62 to 3.23	1.46	84.34–86.15%	elliptic intensity of the positive band declined	91.90	80.10	89.65	81.61	70.38	92.7	MIC ([2]; CICC21630): 3.23 µM; MIC (S. aureus ATCC25923; ATCC25923): 3.23 µM; MIC (S. aureus ATCC546; ATCC546): 6.46 µM; MIC (S. hyicus NCTC10350; S. hyicus NCTC10350, broth dilution, 37 °C, 16–18 h, three experiments): 8 µg/mL; structure after trypsin treatment, MS analysis (trypsin): not affected by trypsin; remaining at 4.5 h (in vitro): 78.4%
